Test systems include MDA-MB-435; UO-31 renal; HCC-2998 colon; UACC-257 melanoma; HL-60(TB) leukemia; K-562 leukemia; MALME-3M melanoma; OVCAR-4 ovarian; 786-0 renal; A549 NSCLC; SF-539 CNS; SK-MEL-2 melanoma.
What all share (test): NCI-60 cell line screen, 48 h

Structures are written as SMILES.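 Step 1: Grow cells in 96-well plates. Step 2: Expose to compound for 48 hours at 5 concentrations. Step 3: Interpolate endpoints linearly; if unreached, use highest concentration. At the TGI there is no net growth.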 Bounds are passed on as bounds.

`CC(C)=CCOC(=O)C(C)=[N+]=[N-]`: the TGI in the test with MDA-MB-435, in the test with UO-31 renal, with HCC-2998 colon, in the test on UACC-257 melanoma, with HL-60(TB) leukemia and in the test on K-562 leukemia was more than 100 µM throughout. Besides, the TGI with MALME-3M melanoma, with OVCAR-4 ovarian and with 786-0 renal was more than 100 µM in each case.

For `O=C1C(Cl)=C(N2CCN(C3=C(Cl)C(=O)c4ccccc4C3=O)CC2)C(=O)c2ccccc21`, the TGI was found to be 3.27 µM in the test with MDA-MB-435; 3.39 µM in the test on UO-31 renal; 8.35 µM in the test on HCC-2998 colon; 2.78 µM in the test with UACC-257 melanoma; 1.26 µM with HL-60(TB) leukemia; 28.1 µM in the test with A549 NSCLC. The TGI with SF-539 CNS stood at 3.15 µM; in the test on MALME-3M melanoma, 3.32 µM; in the test on OVCAR-4 ovarian it was 2.94 µM; in the test on 786-0 renal it was 3.26 µM; in the test on SK-MEL-2 melanoma, 3.34 µM.

`CC1(C)OCC(COC(=O)C=[N+]=[N-])O1` (configuration not stated): the TGI with MDA-MB-435, in the test with UO-31 renal, in the test with HCC-2998 colon, in the test on UACC-257 melanoma, with HL-60(TB) leukemia and in the test with MALME-3M melanoma was more than 100 µM each time. The TGI in the test with OVCAR-4 ovarian, in the test with 786-0 renal and in the test on SK-MEL-2 melanoma was more than 100 µM each time.

Regarding `Cc1nc2c(sc(=S)n2-c2ccccc2)c2nc3ncccc3n12`, the TGI in the test on MDA-MB-435, with UO-31 renal, with HCC-2998 colon, with UACC-257 melanoma, with HL-60(TB) leukemia and in the test on A549 NSCLC was more than 100 µM each time. Further, the TGI in the test on K-562 leukemia, in the test on MALME-3M melanoma, in the test on 786-0 renal and in the test with SK-MEL-2 melanoma was more than 100 µM throughout.

Turning to `CCN(CC)CCc1c2c(nc3ccccc13)C(=O)c1cccnc1C2=O`, the TGI in the test with MDA-MB-435 came out at 4.99 µM; in the test with HCC-2998 colon, 7.55 µM; in the test with UACC-257 melanoma, 2.91 µM; with HL-60(TB) leukemia, 1.41 µM; with A549 NSCLC, 8.65 µM; with K-562 leukemia, 4.23 µM. In addition, the TGI in the test with MALME-3M melanoma worked out at 4.49 µM; with OVCAR-4 ovarian, 3.69 µM; with 786-0 renal, 9.56 µM; in the test with SK-MEL-2 melanoma it was 10.4 µM.

As to `COc1cc2c(cc1OC)C1=Cc3cc(OC)c(OC)cc3C(C)N1C=C2` (configuration not stated), the TGI in the test with MDA-MB-435, with UO-31 renal, in the test with HCC-2998 colon, in the test with UACC-257 melanoma, in the test with HL-60(TB) leukemia and in the test with A549 NSCLC was more than 100 µM throughout. The TGI in the test on SF-539 CNS, in the test with K-562 leukemia, in the test on MALME-3M melanoma and in the test with 786-0 renal was more than 100 µM throughout.

Consider `Cc1nnc(Nc2ccccc2)o1`, for which the TGI with MDA-MB-435, in the test on UO-31 renal, in the test on UACC-257 melanoma, in the test on HL-60(TB) leukemia, with A549 NSCLC and with SF-539 CNS was more than 100 µM in each case. In addition, the TGI with K-562 leukemia, in the test on MALME-3M melanoma, with OVCAR-4 ovarian, with 786-0 renal and in the test on SK-MEL-2 melanoma was more than 100 µM in each case.

Consider `OCC1CCCCCCCCCCC12SCCCS2` (configuration not stated), for which the TGI in the test with MDA-MB-435, in the test with UO-31 renal, in the test on HL-60(TB) leukemia, in the test on A549 NSCLC, in the test on K-562 leukemia and in the test with MALME-3M melanoma was more than 100 µM throughout. In addition, the TGI in the test on OVCAR-4 ovarian, in the test on 786-0 renal and in the test on SK-MEL-2 melanoma was more than 100 µM throughout.

In the case of `CC(=O)OCC(C)C1=C(O)C(=O)C2(C)C/C=C(/C)CC/C=C(\C)CCC(O)C(C)CCC12` (configuration not stated), the TGI in the test with MDA-MB-435 stood at 32.2 µM; with UO-31 renal, 27.2 µM; with UACC-257 melanoma, 33.6 µM; in the test on HL-60(TB) leukemia it was 66.7 µM; with A549 NSCLC, 33.8 µM; with SF-539 CNS, 31 µM. For the same compound, the TGI in the test with K-562 leukemia worked out at 53.4 µM; in the test with MALME-3M melanoma, 31.8 µM; in the test with OVCAR-4 ovarian it was 37 µM; with 786-0 renal, 32 µM; in the test on SK-MEL-2 melanoma it was 39.3 µM.

Take `O=C1CCC[C@@H]2NC[C@@H](c3ccc4c(c3)OCO4)[C@H]12`: the TGI in the test with MDA-MB-435, in the test with UO-31 renal, in the test on HCC-2998 colon, with UACC-257 melanoma, with HL-60(TB) leukemia and in the test with A549 NSCLC was more than 25 µM each time. The TGI with K-562 leukemia, with MALME-3M melanoma, with OVCAR-4 ovarian, in the test on 786-0 renal and with SK-MEL-2 melanoma was more than 25 µM each time.

`COc1ccc(-n2c(=O)c3[nH]cnc3n(-c3ccc(OC)cc3)c2=S)cc1`: the TGI in the test with MDA-MB-435, with UO-31 renal, with HCC-2998 colon, in the test with UACC-257 melanoma, in the test with HL-60(TB) leukemia and with A549 NSCLC was more than 100 µM each time. Further, the TGI in the test with SF-539 CNS, with K-562 leukemia, in the test with OVCAR-4 ovarian, in the test with 786-0 renal and with SK-MEL-2 melanoma was more than 100 µM in each case.

Regarding `COc1cc(-c2cc(=O)c3cc4c(cc3[nH]2)OCO4)cc(OC)c1O`, the TGI in the test on MDA-MB-435, in the test on UO-31 renal, with HCC-2998 colon, in the test with UACC-257 melanoma, in the test with HL-60(TB) leukemia and with A549 NSCLC was more than 10 µM each time. The TGI with SF-539 CNS, with K-562 leukemia, in the test with OVCAR-4 ovarian, in the test with 786-0 renal and with SK-MEL-2 melanoma was more than 10 µM throughout.

As to `O=C(O)CSc1nnc(COc2ccc(Cl)cc2)n1-c1ccccc1`, the TGI in the test on MDA-MB-435, with UO-31 renal, in the test with HCC-2998 colon, with UACC-257 melanoma, in the test with HL-60(TB) leukemia and in the test with A549 NSCLC was more than 100 µM each time. The TGI with K-562 leukemia, in the test on MALME-3M melanoma, in the test with OVCAR-4 ovarian, with 786-0 renal and with SK-MEL-2 melanoma was more than 100 µM in each case.

For `Cc1nc(-c2ccc([N+](=O)[O-])cc2)cn2c1nc1ccccc12`, the TGI in the test on MDA-MB-435, in the test with UO-31 renal, with UACC-257 melanoma, in the test on HL-60(TB) leukemia, in the test with A549 NSCLC and with SF-539 CNS was more than 100 µM in each case. For the same compound, the TGI in the test with K-562 leukemia was more than 100 µM; in the test with MALME-3M melanoma it was more than 100 µM; in the test on OVCAR-4 ovarian, more than 100 µM; with 786-0 renal, more than 100 µM; with SK-MEL-2 melanoma it was 69.2 µM.

`O=C(CN1c2ccccc2Sc2ccccc21)N1CCNCC1`: the TGI in the test on MDA-MB-435, with UO-31 renal, in the test on UACC-257 melanoma, with HL-60(TB) leukemia, in the test on A549 NSCLC and in the test on SF-539 CNS was more than 100 µM in each case. In addition, the TGI with K-562 leukemia, in the test with MALME-3M melanoma, with OVCAR-4 ovarian, in the test with 786-0 renal and in the test on SK-MEL-2 melanoma was more than 100 µM in each case.

Take `CN1C(=O)C2C(=O)N(Cc3ccccc3)CC(=O)N2c2cccnc21` (configuration not stated): the TGI in the test with MDA-MB-435, in the test on UO-31 renal, with UACC-257 melanoma, in the test with HL-60(TB) leukemia, with A549 NSCLC and in the test with SF-539 CNS was more than 100 µM throughout. Further, the TGI in the test with K-562 leukemia, with MALME-3M melanoma, with OVCAR-4 ovarian, with 786-0 renal and in the test on SK-MEL-2 melanoma was more than 100 µM throughout.

With `Nc1nc2cc3nc(N)c(N)nc3cc2nc1N`, the TGI in the test with MDA-MB-435, in the test with UO-31 renal, in the test on HCC-2998 colon, in the test with UACC-257 melanoma, with HL-60(TB) leukemia and in the test with A549 NSCLC was more than 100 µM in each case. In addition, the TGI in the test with SF-539 CNS, in the test with MALME-3M melanoma, with 786-0 renal and with SK-MEL-2 melanoma was more than 100 µM throughout.

On to `Cc1cc(N(CCC#N)CCC#N)ccc1/C=N/NC(=O)c1cc(Cl)ccc1O`, for which the TGI in the test on MDA-MB-435, with HCC-2998 colon, in the test on UACC-257 melanoma, in the test with HL-60(TB) leukemia, in the test on A549 NSCLC and in the test on SF-539 CNS was more than 100 µM in each case. For the same compound, the TGI with MALME-3M melanoma, in the test on OVCAR-4 ovarian, in the test on 786-0 renal and in the test on SK-MEL-2 melanoma was more than 100 µM each time.

Take `CC(C)(C)c1ccc2c(c1)CNCCNCc1cc(C(C)(C)C)ccc1OCC1(CO2)COc2ccc(C(C)(C)C)cc2CNCCNCc2cc(C(C)(C)C)ccc2OC1`: the TGI in the test with MDA-MB-435 turned out to be 1 µM; in the test with UO-31 renal, 3.25 µM; in the test with HCC-2998 colon, 0.786 µM; with UACC-257 melanoma, 3 µM; in the test with HL-60(TB) leukemia it was 0.475 µM; in the test with SF-539 CNS, 2.76 µM. Moreover, the TGI in the test with MALME-3M melanoma is 2.8 µM; with OVCAR-4 ovarian it was 2.93 µM; in the test on 786-0 renal, 0.388 µM; in the test with SK-MEL-2 melanoma, 2.89 µM.

Turning to `c1ccc2c(c1)OC(N1CCCC1)c1cnc(N3CCCC3)nc1-2` (configuration not stated), the TGI with MDA-MB-435 was more than 100 µM; in the test on UO-31 renal, 87.7 µM; in the test with UACC-257 melanoma, 40 µM; with HL-60(TB) leukemia it was 66.5 µM; in the test with A549 NSCLC, more than 100 µM; with SF-539 CNS, more than 100 µM. Further, the TGI in the test on K-562 leukemia, with MALME-3M melanoma, in the test with OVCAR-4 ovarian and in the test with 786-0 renal was more than 100 µM each time.

The record behind these values is PubChem BioAssay (NCI).
